# Results: paper PMC6528642, “Myo‐inositol‐1‐phosphate synthase (Ino‐1) functions as a protection mechanism in Corynebacterium glutamicum under oxidative stress” (MicrobiologyOpen, 2018)
# Biological target: T1, Ino-1 (Corynebacterium glutamicum, UniProt Q8NLE6)
# T1 construct: His6-tagged (pXMJ19-His6-ino-1), homologous expression in C. glutamicum delta-ino-1, Ni-NTA
# Test: intrinsic protein fluorescence quenching (Ex […] nm, Em […] nm)
# Format: binding
# Settings: read-out: apparent K D
# T1 sequence (Q8NLE6 whole entry): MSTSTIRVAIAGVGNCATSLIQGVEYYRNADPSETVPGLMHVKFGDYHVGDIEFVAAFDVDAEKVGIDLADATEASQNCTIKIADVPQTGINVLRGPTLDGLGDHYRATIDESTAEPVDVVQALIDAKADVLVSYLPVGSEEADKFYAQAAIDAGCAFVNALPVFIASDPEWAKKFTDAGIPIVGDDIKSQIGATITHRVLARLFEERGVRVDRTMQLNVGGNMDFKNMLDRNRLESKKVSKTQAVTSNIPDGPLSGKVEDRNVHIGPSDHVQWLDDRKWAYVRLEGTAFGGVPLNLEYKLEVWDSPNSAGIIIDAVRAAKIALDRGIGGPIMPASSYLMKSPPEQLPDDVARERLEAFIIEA
smiles,measurement,value
NC(=O)c1ccc[n+]([C@@H]2O[C@H](COP(=O)(O)OP(=O)(O)OC[C@H]3O[C@@H](n4cnc5c(N)ncnc54)[C@H](O)[C@@H]3O)[C@@H](O)[C@H]2O)c1 [NAD^+],Kd,4.7 ± 0.8 µM
